# Literature values, collected in patent US20140023726A1, “POLYMORPHISMS PREDICTIVE OF PLATINUM-COORDINATING COMPLEX INDUCED OTOTOXICITY” (The University of British Columbia, priority 2006, published 2014).
# Where two headings read alike, the source gives them in different places.
smiles,measurement,setting,value
"N.N.[Cl][Pt][Cl] [cisplatin, trans-diaminedichloro-platinum(II)]","Permanent hearing loss, frequency in patients","children less than 5, standard doses of cisplatin",48%
same,"Permanent hearing loss, frequency in patients",patients receiving standard doses of cisplatin,25%
